Measured values reported in PubChem BioAssay (NCI).
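Assay format: 96-well plates, 48-hour exposure. GI50: concentration for 50% inhibition of growth. TGI marks complete inhibition of growth.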 Where a SMILES comes first, the peptide text is derived from it. Bridges are numbered along the chain shown (N, C = ends). [ ]: non-standard residue; d: D form. The star is where a group is joined. Cbz = O=C(OCc1ccccc1)*; Dab = NCC[CH](N)C(=O)O; Bn = c1ccc(C*)cc1

Legend:
Assay in all cases: DTP human tumour cell line panel, 48 h
[1] = tested on: SR leukemia
[2] = tested on: NCI-H522 lung
[3] = tested on: SF-295 CNS
[4] = tested on: ACHN renal
[5] = tested on: A549 NSCLC
[6] = tested on: HT29 colon
[7] = tested on: NCI/ADR-RES ovarian
[8] = tested on: IGROV1 ovarian
[9] = tested on: SK-MEL-2 melanoma
[10] = tested on: SK-MEL-28 melanoma
[11] = tested on: OVCAR-3 ovarian
[12] = tested on: COLO 205 colon
[13] = tested on: SF-268 CNS
[14] = tested on: HS 578T breast
[15] = tested on: 786-0 renal
[16] = tested on: SN12C renal
[17] = tested on: HCT-15 colon
[18] = tested on: T-47D breast
[19] = tested on: CCRF-CEM leukemia
[20] = tested on: UACC-257 melanoma
[21] = tested on: SNB-19 CNS
[22] = tested on: MCF7 breast
[23] = tested on: NCI-H460 lung
[24] = tested on: NCI-H23 lung
[25] = tested on: UO-31 renal
[26] = tested on: MDA-MB-435
[27] = tested on: MOLT-4 leukemia
[28] = tested on: M14 melanoma
[29] = tested on: UACC-62 melanoma
[30] = tested on: OVCAR-5 ovarian
[31] = tested on: DU-145 prostate
[32] = tested on: OVCAR-8 ovarian
[33] = tested on: PC-3 prostate
[34] = tested on: SF-539 CNS
[35] = tested on: RPMI-8226 leukemia
[36] = tested on: EKVX NSCLC
[37] = tested on: SNB-75 CNS
[38] = tested on: HCT-116 colon
[39] = tested on: K-562 leukemia
[40] = tested on: KM12 colon
[41] = tested on: HOP-62 NSCLC
[42] = tested on: BT-549 breast
[43] = tested on: RXF 393 renal
[44] = tested on: TK-10 renal
[45] = tested on: SK-MEL-5 melanoma
[46] = tested on: MDA-MB-231 breast
[47] = tested on: HL-60(TB) leukemia
[48] = tested on: LOX IMVI melanoma
[49] = tested on: SW-620 colon
[50] = tested on: HOP-92 NSCLC
[51] = tested on: U251 CNS
[52] = tested on: SK-OV-3 ovarian
[53] = tested on: CAKI-1 renal
[54] = tested on: MALME-3M melanoma
[55] = tested on: A498 renal
[56] = tested on: NCI-H226 lung
[57] = tested on: OVCAR-4 ovarian
[58] = tested on: HCC-2998 colon

## CCn1ncc2c1nc(-c1ccccc1)c[n+]2[O-]
[1]
  TGI: > 100 µM
[2]
  TGI: > 100 µM
[3]
  TGI: > 100 µM
[4]
  TGI: > 100 µM
[5]
  TGI: > 100 µM
[6]
  TGI: > 100 µM
[7]
  TGI: > 100 µM
[8]
  TGI: > 100 µM
[9]
  TGI: > 100 µM
[10]
  TGI: > 100 µM
[11]
  TGI: > 100 µM
[12]
  TGI: > 100 µM
[13]
  TGI: > 100 µM
[14]
  TGI: > 100 µM
[15]
  TGI: > 100 µM
[16]
  TGI: > 100 µM
[17]
  TGI: > 100 µM
[18]
  TGI: > 100 µM
[19]
  TGI: > 100 µM
[20]
  TGI: > 100 µM
[21]
  TGI: > 100 µM
[22]
  TGI: > 100 µM
[23]
  TGI: > 100 µM
[24]
  TGI: > 100 µM
[25]
  TGI: > 100 µM
[26]
  TGI: > 100 µM
[27]
  TGI: > 100 µM
[28]
  TGI: > 100 µM
[29]
  TGI: > 100 µM
[30]
  TGI: > 100 µM
[31]
  TGI: > 100 µM
[32]
  TGI: > 100 µM
[33]
  TGI: > 100 µM
[34]
  TGI: > 100 µM
[35]
  TGI: > 100 µM
[36]
  TGI: > 100 µM
[37]
  TGI: > 100 µM
[38]
  TGI: > 100 µM
[39]
  TGI: > 100 µM
[40]
  TGI: > 100 µM

## CN(C)CCCNC(=O)c1ccc2oc3cc4ccccc4c(=O)n3c2c1
[1]
  GI50: 30.8 µM
  TGI: > 50 µM
[41]
  GI50: > 50 µM
  TGI: > 50 µM
[2]
  GI50: 17.4 µM
  TGI: > 50 µM
[3]
  GI50: 33.7 µM
  TGI: > 50 µM
[4]
  GI50: 11.8 µM
  TGI: > 50 µM
[42]
  GI50: 24.2 µM
  TGI: > 50 µM
[5]
  GI50: 27.6 µM
  TGI: > 50 µM
[6]
  GI50: 15.4 µM
  TGI: 46.8 µM
[7]
  GI50: > 50 µM
  TGI: > 50 µM
[8]
  GI50: 18.4 µM
  TGI: > 50 µM
[43]
  GI50: 41.6 µM
  TGI: > 50 µM
[44]
  GI50: 10.3 µM
  TGI: > 50 µM
[45]
  GI50: 11.2 µM
  TGI: 28.8 µM
[9]
  GI50: > 50 µM
  TGI: > 50 µM
[10]
  GI50: 19.9 µM
  TGI: > 50 µM
[11]
  GI50: 8.7 µM
  TGI: > 50 µM
[12]
  GI50: 29.4 µM
  TGI: > 50 µM
[13]
  GI50: 15.4 µM
  TGI: > 50 µM
[15]
  GI50: > 50 µM
  TGI: > 50 µM
[16]
  GI50: 45.6 µM
  TGI: > 50 µM
[17]
  GI50: 23.8 µM
  TGI: > 50 µM
[18]
  GI50: > 50 µM
  TGI: > 50 µM
[20]
  GI50: 20.6 µM
  TGI: > 50 µM
[21]
  GI50: > 50 µM
  TGI: > 50 µM
[22]
  GI50: > 50 µM
  TGI: > 50 µM
[23]
  GI50: 16.6 µM
  TGI: > 50 µM
[24]
  GI50: 17.9 µM
  TGI: > 50 µM
[25]
  GI50: 18.3 µM
  TGI: > 50 µM
[26]
  GI50: 31.6 µM
  TGI: > 50 µM
[27]
  GI50: > 50 µM
  TGI: > 50 µM
[46]
  GI50: 16.5 µM
  TGI: > 50 µM
[28]
  GI50: 30.3 µM
  TGI: > 50 µM
[47]
  GI50: 29.8 µM
  TGI: > 50 µM
[48]
  GI50: 10.8 µM
  TGI: 27 µM
[29]
  GI50: > 50 µM
  TGI: > 50 µM
[31]
  GI50: 36.7 µM
  TGI: > 50 µM
[32]
  GI50: 40.5 µM
  TGI: > 50 µM
[49]
  GI50: 24.3 µM
  TGI: > 50 µM
[33]
  GI50: > 50 µM
  TGI: > 50 µM
[50]
  GI50: > 50 µM
  TGI: > 50 µM
[34]
  GI50: 13.6 µM
  TGI: 30.5 µM
[35]
  GI50: > 50 µM
  TGI: > 50 µM
[36]
  GI50: > 50 µM
  TGI: > 50 µM
[51]
  GI50: 37.5 µM
  TGI: > 50 µM
[37]
  GI50: 12.6 µM
  TGI: 33.1 µM
[52]
  GI50: > 50 µM
  TGI: > 50 µM
[53]
  GI50: 8.31 µM
  TGI: 36.5 µM
[38]
  GI50: 30.8 µM
  TGI: > 50 µM
[54]
  GI50: > 50 µM
  TGI: > 50 µM
[39]
  GI50: 33.8 µM
  TGI: > 50 µM
[40]
  GI50: 18.5 µM
  TGI: > 50 µM

## CS/C(C#N)=C(\C#N)SC
[1]
  TGI: 5.43 µM
[41]
  TGI: > 100 µM
[2]
  TGI: 3.75 µM
[3]
  TGI: 53.8 µM
[4]
  TGI: 29.9 µM
[55]
  TGI: 47.7 µM
[56]
  TGI: 5.92 µM
[5]
  TGI: > 100 µM
[6]
  TGI: 64.2 µM
[7]
  TGI: > 100 µM
[8]
  TGI: 43.8 µM
[57]
  TGI: 38.2 µM
[43]
  TGI: 5.11 µM
[44]
  TGI: 20.7 µM
[45]
  TGI: 49.1 µM
[9]
  TGI: 31.7 µM
[10]
  TGI: 37.7 µM
[11]
  TGI: 4.88 µM
[12]
  TGI: > 100 µM
[13]
  TGI: 58 µM
[14]
  TGI: > 100 µM
[15]
  TGI: > 100 µM
[16]
  TGI: 34.4 µM
[17]
  TGI: 5.95 µM
[18]
  TGI: 26.2 µM
[19]
  TGI: > 100 µM
[20]
  TGI: 30.6 µM
[21]
  TGI: 65.9 µM
[22]
  TGI: 12.3 µM
[23]
  TGI: 81.4 µM
[24]
  TGI: 79.4 µM
[25]
  TGI: 18.9 µM
[26]
  TGI: 40.5 µM
[27]
  TGI: 4.77 µM
[46]
  TGI: 89.6 µM
[58]
  TGI: 20.9 µM
[28]
  TGI: 6.56 µM
[47]
  TGI: 6.39 µM
[48]
  TGI: > 100 µM
[29]
  TGI: 14.4 µM
[30]
  TGI: > 100 µM
[31]
  TGI: 40.7 µM
[32]
  TGI: 6.06 µM
[49]
  TGI: > 100 µM
[33]
  TGI: 62.2 µM
[34]
  TGI: 34.1 µM
[35]
  TGI: > 100 µM
[36]
  TGI: 62.2 µM
[51]
  TGI: > 100 µM
[37]
  TGI: > 100 µM
[53]
  TGI: 22.3 µM
[38]
  TGI: > 100 µM
[54]
  TGI: 30.1 µM
[39]
  TGI: 48.4 µM
[40]
  TGI: 37.7 µM

## CC(C)CC1NC(=O)C(Cc2ccccc2)NC(=O)C(Cc2ccccc2)NC(=O)C(NC(=O)C(Cc2ccc(OCc3ccccc3)cc2)NC(=O)OCc2ccccc2)CCNC1=O (stereo unspecified) (Cbz-Y(Bn)[Dab]FFL; lactam 2-C; configuration not given here)
[56]
  TGI: > 100 µM
[20]
  TGI: 84.7 µM
[24]
  TGI: > 100 µM
[50]
  TGI: > 100 µM
